Test results reported in a melting point compilation (Tetko et al.).

Compound | melting point [°C]
Cc1cc(Cl)cc2cccnc12 | 62 to 64
O=C(O)C1CCCN1C(=O)Cc1cn2ccsc2n1 (configuration not stated) | 121 to 123
COC(=O)C1C2CCC(N2)C1C(=O)OC (configuration not stated) | 77 to 79
CN(C)S(=O)(=O)c1ccc(C(=O)O)o1 | 177 to 179
Nc1ccc(Cl)cc1C(=O)N1CCCC1 | 139 to 141
CCN(Cc1ccccc1)c1ccc(C(=O)O)cc1 | 183 to 185
O=C(c1cc(Br)c(S(=O)(=O)Cl)[nH]1)C(Cl)(Cl)Cl | 144 to 146
CCCCCCCC(=O)NCCCC(=O)O | 69 to 71
O=Cc1ccc(OCC(=O)Nc2ccccc2)cc1 | 125 to 127
Cc1cc(Cl)cc2nc(Cl)oc12 | 59 to 61
N#CCC(=O)c1cccc([N+](=O)[O-])c1 | 149 to 151
COc1cccc(-c2nn(-c3ccc(C)cc3)cc2C(=O)O)c1 | 162 to 164
O=[N+]([O-])c1c(F)cccc1S(=O)(=O)Cl | 52 to 54
O=C1NCC(Br)C(=O)N1 (configuration not stated) | 200 to 202
Nc1nccc(-c2ccc([N+](=O)[O-])cc2)n1 | 217 to 219
O=C(O)CCc1nc2sc3c(c2c(=O)[nH]1)CCC3 | 220 to 222
O=C(O)c1cc(Cl)cc(Cl)n1 | 93 to 95
C/C(=N\O)c1sc(C(C)(C)C)nc1C | 117 to 119
Cc1ccc2nc(S)n(C)c(=O)c2c1 | 275 to 277

Compound | melting point [°C]
N#Cc1ccc(C(=O)NNC(=O)CCl)cc1 | 185 to 187
Cc1oc(C(=O)O)cc1S(N)(=O)=O | 225 to 227
COc1ccccc1-c1nc(C(=O)O)cs1 | 184 to 186
N#Cc1c[nH]c(C(=O)C(Cl)(Cl)Cl)c1 | 134 to 136
CC(C)(C)c1cn2nc(Br)sc2n1 | 105 to 107
COc1ccccc1C1C(C(=O)O)CCC(=O)N1c1ccc(C)cc1 (configuration not stated) | 205 to 208
CC(Cl)C(=O)c1c[nH]c2ncccc12 (configuration not stated) | 162 to 164
COC(=O)c1[nH]n(-c2ccc(C(=O)O)cc2)c(=O)c1CCO | 233 to 235
CC(C)c1ccc2c(c1)[C@@H](O)CCC2 | 89 to 91
NNC(=O)Cc1ccc(Cl)cc1 | 165 to 167
N#Cc1ccc(C=CC(=O)O)cc1 | 250 to 252
CC(C)n1ncc(C(=O)O)c1C(F)(F)F | 125 to 127
NCC(O)c1ccc(Cl)s1 (configuration not stated) | 74 to 76
CC1=CC(=O)N(C2CCCCC2)C1=O | 99 to 101
CCn1c(C)nc2cc(S(=O)(=O)C(F)F)ccc21 | 161 to 163
Cc1ccc(C2(C)NC(=O)NC2=O)cc1 (configuration not stated) | 207 to 209
O=C(Cc1ccc(Br)cc1)NC(C(=O)O)c1ccccc1 (configuration not stated) | 177 to 179
N#Cc1cnn(-c2ccncc2)c1N | 273 to 275
Cn1c(-c2ccccc2)c(Br)c2ccccc21 | 59 to 61

Compound | melting point [°C]
CN(C)C(=O)COc1ccccc1C(=O)O | 127 to 129
O=C(O)c1cc(Br)c(S(=O)(=O)Cl)s1 | 129 to 131
CC(c1ccncc1)n1nccc1N (configuration not stated) | 279 to 281
Cc1cccc2c(CCN)c[nH]c12 | 125 to 127
COC(=O)c1ccc(OCc2ccccc2)c(N)c1 | 96 to 98
CC(C)CN1CCCCC1C(=O)O (configuration not stated) | 198 to 200
O=C(CCl)NC1CCCC1 | 73 to 75
N#Cc1cccn2ccnc12 | 169 to 171
O=C1c2ccccc2N2C(=O)CCC2(C(=O)O)N1Cc1ccccc1 (configuration not stated) | 134 to 136
CCC(C#N)(CC)NC(=O)OC(C)(C)C | 98 to 100
COc1ccc(S(=O)(=O)NCC(=O)O)cc1 | 131 to 133
O=C(O)c1ccc2c(c1)C(=O)N(Cc1ccccc1)C2=O | 198 to 200
CC(C)c1noc2ncc(C(=O)O)cc12 | 159 to 161
N#Cc1ccc(OCC2CO2)c([N+](=O)[O-])c1 (configuration not stated) | 85 to 87
COC(=O)C1CC(O)CN1C(=O)c1ccc(F)cc1 (configuration not stated) | 150 to 152
COc1cc(-c2ccccc2)ccc1C=O | 91 to 93
NN1C(=O)NC(c2ccccc2)(c2ccccc2)C1=O | 188 to 192
Cc1ccc(C)c(S(N)(=O)=O)c1 | 149 to 151
COc1ccc(C(=O)Nc2ccc(C(=O)O)cc2)cc1OC | 259 to 261

Further lines, results first:

melting point [°C] | Compound
98 to 100 | O=C1CCN(C2CC2)CCN1
95 to 97 | CCOC(=O)c1c(-c2ccccc2)csc1N=CN(C)C
249 to 251 | Cc1cc(S(N)(=O)=O)sc1C(=O)O
259 to 261 | Cc1nc(O)nc(O)c1N
255 to 257 | Nc1noc(-c2ccc(Cl)cc2)n1
198 to 200 | COc1ccc(C(=O)NCC(=O)O)cc1OC
126 to 128 | Cc1ccc(C2OCCCC2C(=O)O)cc1 (configuration not stated)
222 to 224 | O=C(O)c1csc(-c2ccc3c(c2)OCO3)n1
138 to 140 | CC(C)=CCSc1ccccc1C(=O)O
115 to 117 | CCOC(=O)/C(C#N)=C/Nc1ccc(OCC)cc1
77 to 79 | CC(=O)N1CCC(O)C1 (configuration not stated)
183 to 185 | ON=Cc1cnc2ccccn12
205 to 207 | O=[N+]([O-])c1ccc(-c2cn[nH]c2)cc1
163 to 165 | COc1ccc(Br)cc1C(N)C(=O)O (configuration not stated)
186 to 188 | COc1ccc(-c2cc(C(=O)O)sc2C)cc1
119 to 121 | N#Cc1ccc(NN)cc1C(F)(F)F
161 to 163 | Cc1ccc(C)c(NC(=O)CCl)c1
99 to 101 | CCN(CC)c1ccc(S(=O)(=O)N2CCOCC2)cc1N
205 to 207 | CCN(C(C)=O)C(C(=O)O)c1ccc(F)c(F)c1 (configuration not stated)
61 to 63 | O=C(NCC1CCCC1)n1ccnc1
156 to 158 | O=C(O)c1ccccc1NCc1ccco1
101 to 103 | CC(N)c1ccc2c(c1)CC(=O)N2C (configuration not stated)

melting point [°C] | Compound
73 to 77 | Nc1cccc(S(=O)(=O)N2CCCCCC2)c1
156 to 158 | Nc1cnccc1O
190 to 192 | O=C(NCc1ccc(C(=O)O)cc1)OCc1ccccc1
89 to 91 | OCC1CSc2ccccc2O1 (configuration not stated)
172 to 174 | COc1ccccc1NC(=O)CC1Nc2ccccc2NC1=O (configuration not stated)
99 to 101 | O=C1CC2(CCCc3ccccc32)C(=O)O1 (configuration not stated)
88 to 90 | COCCNS(=O)(=O)c1ccc(C#N)cc1
104 to 106 | Cc1cc(C)c2c(C)nn(-c3ccc(N)cc3)c2n1
200 to 202 | CCN1CCN(CC(=O)O)C(=O)C1=O
89 to 91 | Cc1nc(Cl)c2c3c(sc2n1)CC(C)CC3 (configuration not stated)
119 to 121 | CCc1cc(C(=O)O)nn1C
170 to 172 | CN(CC(=O)O)c1cnccn1
182 to 184 | CC1CCC(C(=O)O)C2C(=O)N(c3ccccc3)C(=O)C12 (configuration not stated)
140 to 142 | CCn1c(S)nnc1-c1ccncc1
98 to 100 | O=C(O)CSCc1cscn1
158 to 160 | Cc1noc2nc(C(C)C)cc(C(=O)O)c12
310 to 312 | CCN(CC)S(=O)(=O)c1ccc2nc(O)cc(C(=O)O)c2c1
178 to 180 | Nc1ccc2nc(-c3ccccn3)oc2c1
51 to 53 | C=Cc1nc(-c2cccc(Cl)c2)no1
118 to 120 | COc1ccccc1C(=O)NC(=O)CCl
69 to 71 | OC1CCc2cc(Br)ccc21 (configuration not stated)
141 to 143 | Cc1cc(C(=O)CCl)c(C)n1NC(=O)c1ccccc1

melting point [°C] | Compound
252 to 254 | Nc1cc2c(cc1N)OCC(=O)N2
110 to 112 | Nc1ccccc1NC(=O)c1cccs1
197 to 199 | O=C(O)CCc1ccc(-c2ccccc2)[nH]1
116 to 118 | O=C(O)CNC(=O)CC1CCCCC1
76 to 78 | CCC1(c2ccc(C)cc2)CC(=O)NC1=O (configuration not stated)
113 to 115 | CC(C)(C)OC(=O)NC1CCC(=O)CC1
129 to 131 | O=C(Nc1ccccc1C(=O)O)OCc1ccccc1
35 to 37 | Brc1ccccc1-c1ncno1
164 to 166 | NC(=S)N1CCN(c2ccccn2)CC1
189 to 191 | COc1ccc(Br)c(-c2nnc(N)o2)c1
164 to 166 | Cc1[nH]c(C2CCCN2)nc1-c1ccccc1 (configuration not stated)
76 to 78 | NC(Cc1ccccc1)C(=O)Nc1ccccc1 (configuration not stated)
88 to 90 | Sc1nnc(-c2ccc(Cl)cc2)o1
149 to 151 | CSc1nc2ncnc(Cl)c2s1
132 to 134 | COC(=O)c1cc2c(nc1N)CCC2
146 to 148 | NNc1nccc(N2CCOCC2)n1
201 to 203 | Cc1ccc(F)c(-n2cc(O)c(C(=O)O)n2)c1
262 to 264 | Cc1nc2cc(F)ccc2cc1C(=O)O
95 to 97 | COC(=O)NCc1ccc(N)cc1
289 to 291 | O=C(O)c1ccc(-c2cccs2)[nH]c1=O
64 to 66 | NCC1(O)Cc2ccccc2C1
128 to 130 | COC(=O)c1c(-c2cnn(C)c2)csc1N

melting point [°C] | Compound
131 to 133 | CS(=O)(=O)c1ccc(C(=O)c2ccccc2)cc1
137 to 139 | Cc1ccc(S(=O)(=O)c2ccc(CBr)cc2)cc1
192 to 194 | O=C1C=C(O)C(=O)c2ccccc21
129 to 131 | CC(=O)CC(=O)Nc1ccc2nc(C)sc2c1
182 to 184 | Clc1ccnc2cc(Br)cnc12
72 to 74 | CC(C)C(Br)C(=O)N(C)C1CCCCC1 (configuration not stated)
66 to 68 | Nc1ccc(OCC(F)(F)F)cc1
64 to 66 | NC(=O)N1CCC(N)CC1
205 to 207 | COc1cccc(NC(=O)CNc2ccccc2)c1
115 to 117 | Cc1cc(C(=O)CCl)c(C)n1-c1ccc(C(F)(F)F)cc1
193 to 195 | Nn1c(S)nnc1-c1ccccc1
98 to 100 | Cc1c(S(=O)(=O)Cl)cnn1-c1ccccc1Cl
199 to 201 | O=C(O)c1c[nH]cc1-c1ccc(F)cc1
123 to 125 | O=C(O)CC(c1ccccc1)N1CCOC1=O (configuration not stated)
170 to 172 | O=C(O)c1cccc(S(=O)(=O)CC(F)F)c1
247 to 249 | CC(=O)c1sc2nc(CCl)[nH]c(=O)c2c1C
70 to 72 | CCO/C=C(\C#N)c1nc(C)cs1
111 to 113 | CCC(NC(=O)OC(C)(C)C)c1ccccc1O (configuration not stated)
209 to 211 | O=C(O)CCc1nc2cccc(Cl)c2[nH]1
